Experimental data taken from article PMC4349960, “[^18F]FE@SUPPY: a suitable PET tracer for the adenosine A3 receptor? An in vivo study in rodents” (European Journal of Nuclear Medicine and Molecular Imaging, 2015).
“Also recorded” adds a separate entry of the source.

What was measured:
[1] = biological target: T1, CHO cells expressing the human A3R (CHO-A3) (Homo sapiens, UniProt P0DMS8); assay: Xenograft mouse model PET (CHO vs CHO-A3 solid tissue masses); assay type: in vivo, mice
T1 construct: Karl-Norbert Klotz (University of Würzburg); host or cells: CHO cells stably transfected (CHO-A3), grown as subcutaneous masses in NMRI-nu/nu mice
T1 sequence (P0DMS8 1-318): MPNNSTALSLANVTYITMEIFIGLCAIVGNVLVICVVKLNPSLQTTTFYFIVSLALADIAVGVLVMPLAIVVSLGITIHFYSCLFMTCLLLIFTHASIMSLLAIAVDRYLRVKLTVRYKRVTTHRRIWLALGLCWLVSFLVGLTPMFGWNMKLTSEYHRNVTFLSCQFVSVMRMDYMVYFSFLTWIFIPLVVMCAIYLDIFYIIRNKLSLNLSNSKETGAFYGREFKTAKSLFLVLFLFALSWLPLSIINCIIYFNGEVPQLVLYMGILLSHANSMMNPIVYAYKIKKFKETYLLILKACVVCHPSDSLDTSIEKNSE
Description: Adult male Sprague-Dawley rats (Him:OFA; Animal Research Institute, Himberg, Austria) weighing 307 ± 35 g were kept under controlled environmental conditions (22 ± 1 °C, 40 – 70 % humidity, 12-h light/dark cycle) with free access to standard laboratory animal diet and tap water. Before being used in the experiments, the animals were allowed to adapt to the new conditions for at least a week. Prior to each experiment, the animals were placed in a chamber containing 2.5 % isoflurane in oxygen. When unconscious, the animals were taken from the chamber and kept under anaesthesia with 1.8 % isoflurane administered via a mask during the whole experiment. Pathogen-free, female NMRI-nu/nu mice (Taconic, Denmark) weighing 28.1 ± 0.8 g were housed under sterile conditions. Mice were injected subcutaneously into both upper flanks with 100 μL of a cell suspension in phosphate-buffered saline containing 10^6 CHO cells (right side) or 10^6 CHO-A3 cells (left side). During the imaging periods of 60 or 90 min (rats or xenografted mice, respectively) the isoflurane level was adjusted depending on the depth of anaesthesia. A humidifier was used to moisten the gas mixture before supplying it to the animal.
Around 17 days after cell inoculation, animals in the xenograft group were positioned in the imaging chamber and a dynamic 90-min PET scan was initiated at the start of [^18F]FE@SUPPY injection (2.21 ± 0.75 MBq dissolved in 100 μl physiological saline, pH 7.4; three animals) via a tail vein under isoflurane anaesthesia (2 %). Additionally, in this group, [^18F]FDG PET was performed 1 day prior to the [^18F]FE@SUPPY experiments. […] In brief, mice were deprived of food for 6 – 8 h before [^18F]FDG injection via a tail vein. Mice had access to drinking water at all times. Body warming was achieved by placing the entire cage on a heating pad kept at 38 °C. Warming was started around 30 min before tracer injection and was continued throughout the uptake and imaging period. [^18F]FDG (6.03 ± 1.31 MBq dissolved in 100 μL physiological saline, pH 7.4; three animals) was injected via a tail vein under isoflurane anaesthesia (2 %). Mice were kept under isoflurane anaesthesia throughout the whole uptake and imaging period. A 10-min static image was acquired at 1 h after [^18F]FDG injection. […]
For all PET scans (rats and xenografted mice), list mode data were acquired with an energy window of 350 – 750 keV (rats) or 250 – 750 keV (mice) and a 6-ns timing window. Before each PET scan, a transmission scan using a ^57Co point source was recorded over 10 min. […] A calibration factor for converting units of microPET images into absolute radioactivity concentration units was first generated by imaging a phantom filled with a known concentration of [^18F]FDG. […]

[2] = In vitro plasma stability, human plasma; assay type: in vitro ADME; settings: 0-120 min
Description: Experiments were conducted following a standard protocol. Briefly, [^18F]FE@SUPPY was added to lithium-heparinized human or rat plasma and after predetermined times (0, 60 and 120 min), the incubation mixture was eluted through a preconditioned SPE cartridge. The washed and newly eluted eluate solutions were injected into the radio-HPLC system (HPLC system as described in the section Ex vivo stability). The stationary phase was an analytical HPLC column LiChrospher LICHROCART® RP-18e (5 μm), 125 × 4 mm precolumn, and the mobile phase consisted of sodium citrate tribasic dehydrate (buffered at 0.034 M, pH 2.5)/acetonitrile 32:68 at a flow rate of 2 mL/min. Samples were incubated with a Thermomixer Compact from Eppendorf (Vienna, Austria) and centrifuged with a Universal 30 RF centrifuge from Hettich (Tuttlingen, Germany).

increased uptake (AUC) in CHO-A3 versus CHO tissue masses ([1]; xenografted NMRI-nu/nu mice, 90-min PET): around 1.42 fold
SMILES: CCSC(=O)c1c(CC)nc(-c2ccccc2)c(C(=O)OCC[18F])c1CC [[^18F]FE@SUPPY, 5-(2-[^18F]fluoroethyl)-2,4-diethyl-3-(ethylsulfanylcarbonyl)-6-phenylpyridine-5-carboxylate]
Xenograft model of human A3R, finding ([1]; compared to [^18F]FDG): Specific uptake in CHO-A3 solid mass (p ≤ 0.03) compared to [^18F]FDG
stability in human plasma [2]: no degradation; also recorded: no metabolites were observed; also recorded: Stable over 120 min in human plasma
